Data set [1] addresses T1, ATP-dependent translocase ABCB1 (Homo sapiens, UniProt P08183). The data set can be described thus: Inhibition of human ABCB1 in expressed in multidrug resistant mouse L5178Y cells assessed as fluorescence activity ratio at 20 uM by rhodamine 123 retention assay relative to parental L5178Y cells. The class given is cell-based.
Data set [2] relates to L5178Y. The data set can be described thus: Cytotoxicity against mouse L5178Y cells assessed as reduction in cell viability by MTT assay. Format: functional, cell-based. (Tetrazolium dyes change colour on reduction, which living cells bring about.)
Data set [3] deals with T1, ATP-dependent translocase ABCB1. Nature of the data set: Inhibition of human ABCB1 in expressed in multidrug resistant mouse L5178Y cells assessed as fluorescence activity ratio at 2 uM by rhodamine 123 retention assay relative to parental L5178Y cells. Format: cell-based.
The subject of data set [4] is L5178Y. The data set can be described thus: Cytotoxicity against multidrug resistance mouse L5178Y cells expressing human MDR1 assessed as reduction in cell viability by MTT assay. The class given is functional, cell-based.
Data set [5] deals with L5178Y. Nature of the data set: Antiproliferative activity against mouse L5178Y cells by MTT assay. Format: functional, cell-based.
In data set [6] the test system is L5178Y. The data set can be described thus: Antiproliferative activity against multidrug resistance mouse L5178Y cells expressing human MDR1 by MTT assay. Format: functional, cell-based.
Data set [7] concerns the target T1, ATP-dependent translocase ABCB1. The data set can be described thus: Inhibition of human ABCB1 in expressed in multidrug resistant mouse L5178Y cells assessed as fluorescence activity ratio by rhodamine 123 retention assay relative to verapamil. The class given is cell-based.
The species entered for another data set is Homo sapiens. Nature of the data set: Substrate activity at Pgp (unknown origin) assessed as increase in ATP basal consumption at 100 uM by Pgp-Glo luminescence assay relative to control.

T1 sequence (P08183 whole entry): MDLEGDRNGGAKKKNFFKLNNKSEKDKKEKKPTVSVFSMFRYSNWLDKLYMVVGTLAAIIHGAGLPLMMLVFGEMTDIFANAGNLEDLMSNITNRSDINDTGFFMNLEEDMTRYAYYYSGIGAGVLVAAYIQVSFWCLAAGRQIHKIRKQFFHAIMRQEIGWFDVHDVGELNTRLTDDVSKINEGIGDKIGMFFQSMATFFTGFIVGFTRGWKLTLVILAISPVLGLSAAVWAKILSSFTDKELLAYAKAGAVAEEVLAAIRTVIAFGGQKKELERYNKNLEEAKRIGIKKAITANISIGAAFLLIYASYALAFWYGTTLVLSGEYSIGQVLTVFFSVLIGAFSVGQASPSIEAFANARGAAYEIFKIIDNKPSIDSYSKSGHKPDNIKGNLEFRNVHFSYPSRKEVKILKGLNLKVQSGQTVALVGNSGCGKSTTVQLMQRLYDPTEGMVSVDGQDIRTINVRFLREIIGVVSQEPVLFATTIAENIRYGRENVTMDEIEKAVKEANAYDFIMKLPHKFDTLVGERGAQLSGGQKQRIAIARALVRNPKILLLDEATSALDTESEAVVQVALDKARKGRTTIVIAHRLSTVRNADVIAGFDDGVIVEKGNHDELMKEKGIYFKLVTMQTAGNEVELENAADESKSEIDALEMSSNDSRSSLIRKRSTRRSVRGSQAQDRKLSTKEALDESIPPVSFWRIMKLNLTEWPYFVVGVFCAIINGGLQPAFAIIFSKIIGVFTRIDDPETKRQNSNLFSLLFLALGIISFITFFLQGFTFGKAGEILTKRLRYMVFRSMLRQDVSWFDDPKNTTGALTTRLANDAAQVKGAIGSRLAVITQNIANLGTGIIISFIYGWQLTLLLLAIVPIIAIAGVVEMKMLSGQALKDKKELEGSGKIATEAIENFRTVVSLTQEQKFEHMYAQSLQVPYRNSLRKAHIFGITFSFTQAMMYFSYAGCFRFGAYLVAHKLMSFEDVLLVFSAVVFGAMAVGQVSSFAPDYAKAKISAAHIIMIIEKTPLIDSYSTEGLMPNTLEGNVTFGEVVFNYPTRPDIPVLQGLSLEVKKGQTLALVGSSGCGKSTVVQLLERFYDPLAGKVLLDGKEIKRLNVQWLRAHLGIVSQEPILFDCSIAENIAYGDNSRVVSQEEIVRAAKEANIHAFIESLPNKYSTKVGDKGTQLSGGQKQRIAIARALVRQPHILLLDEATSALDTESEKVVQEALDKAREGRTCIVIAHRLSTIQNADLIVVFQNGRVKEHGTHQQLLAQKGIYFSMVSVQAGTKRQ

Turning to `CC(C)(C)c1ccc(OCCCN2CCN(c3ncccn3)CC2)cc1`, the results for the Ratio in data set [1] and in data set [3] were 1.02 and 0.93, respectively. In addition, the IC50 in the data set with L5178Y [2] came out at 40.4 µM; in the data set with L5178Y [4] it was 49.4 µM; with L5178Y [5], 25.6 µM; in the data set with L5178Y [6] it was 20.7 µM.

Regarding `CC(C)(C)c1ccc(OCCCCN2CCN(c3ncccn3)CC2)cc1`, the Ratio in data set [1] stood at 34.05; in data set [7] it was 1.6; in data set [3], 2.7. Besides, the IC50 in the data set with L5178Y [2] is 20.8 µM; in the data set with L5178Y [4], 17.6 µM; in the data set with L5178Y [5], 11.3 µM; in the data set with L5178Y [6], 9.88 µM.

In the case of `CC(=O)c1ccc(OCCCN2CCN(c3ncccn3)CC2)cc1`, the Ratio in data set [1] stood at 1.03; in data set [3], 1.06. Besides, the IC50 is over 100 µM in the data set on L5178Y [2], 53.2 µM in the data set with L5178Y [5] and 77.5 µM in the data set on L5178Y [6].

For `CCC(C)(C)c1ccc(OCCCCN2CCN(c3cccnc3)CC2)cc1`, the values for the Ratio in data set [1], in data set [7] and in data set [3] were 19.26, 1.6 and 5.95, respectively. Also, the IC50 with L5178Y [2] is 9.23 µM; in the data set on L5178Y [4] it was 7.59 µM; in the data set on L5178Y [5], 3.23 µM; with L5178Y [6] it was 3.68 µM. Further, the Activity in the data set filed under Homo sapiens is over 100%.

As for `CC(=O)c1ccc(OCCCN2CCN(c3ccncc3)CC2)cc1`, the Ratio is on record as 1.61 in data set [1] and 1.29 in data set [3]. Moreover, the values for the IC50 with L5178Y [2], in the data set with L5178Y [5] and in the data set with L5178Y [6] were over 100 µM, 42.3 µM and 43.8 µM, respectively.

For the molecule `CC(C)(C)c1ccc(OCCCCN2CCN(c3ccccn3)CC2)cc1`, the Ratio is on record as 38.41 in data set [1], 1.6 in data set [7] and 1.74 in data set [3]. The IC50 with L5178Y [2] turned out to be 15.1 µM; in the data set with L5178Y [4] it was 16.7 µM; in the data set on L5178Y [5], 11.9 µM; in the data set with L5178Y [6], 16.4 µM. Also, in the data set listed under Homo sapiens, the Activity was over 100%.

`CC(=O)c1ccc(OCCCN2CCN(c3ccccn3)CC2)cc1`: the results for the Ratio in data set [1] and in data set [3] were 0.84 and 0.92, respectively. The 50% inhibitory concentration (IC50) in the data set with L5178Y [4] worked out at 49.7 µM; with L5178Y [5] it was 27.1 µM; with L5178Y [6], 32.8 µM.

In the case of `CCC(C)(C)c1ccc(OCCCCN2CCN(c3cnccn3)CC2)cc1`, the Ratio in data set [1] was 73.64; in data set [7], 1.6; in data set [3], 1.85. The IC50 in the data set on L5178Y [2] amounted to 12.6 µM; in the data set with L5178Y [4], 12.8 µM; in the data set with L5178Y [5], 9.56 µM; in the data set on L5178Y [6] it was 9.49 µM. Moreover, the Activity in the data set listed under Homo sapiens was over 100%.

As to `CCC(=O)c1ccc(OCCCN2CCN(c3ncccn3)CC2)cc1`, the Ratio in data set [1] came to 1.02; in data set [3], 0.92. For the same molecule, the IC50 in the data set on L5178Y [2] was over 100 µM; in the data set with L5178Y [4] it was 54.6 µM; with L5178Y [5] it was 36.9 µM; with L5178Y [6], 41.3 µM.

Turning to `CC(=O)c1ccc(OCCCCN2CCN(c3ncccn3)CC2)cc1`, the results for the Ratio in data set [1] and in data set [3] were 1.28 and 0.86, respectively. Moreover, the IC50 is over 100 µM in the data set on L5178Y [2], 63.9 µM in the data set on L5178Y [4], 31.6 µM in the data set with L5178Y [5] and 38.9 µM in the data set with L5178Y [6].

On to `CC(C)(C)c1ccc(OCCCCN2CCN(c3cnccn3)CC2)cc1`, for which the values for the Ratio in data set [1], in data set [7] and in data set [3] were 17.85, 1.6 and 1.36, respectively. Besides, the IC50 is 18.3 µM with L5178Y [2], 27.6 µM in the data set on L5178Y [4], 9.86 µM in the data set on L5178Y [5] and 9.68 µM in the data set with L5178Y [6].

Turning to `CCC(=O)c1ccc(OCCCN2CCN(c3cnccn3)CC2)cc1`, the Ratio is reported as 0.82 in data set [1] and 0.83 in data set [3]. The IC50 in the data set with L5178Y [2] was found to be 47.5 µM; in the data set on L5178Y [4], 60.3 µM; in the data set on L5178Y [5], 24.3 µM; in the data set with L5178Y [6], 30 µM.

As to `CC(=O)c1ccc(OCCCCN2CCN(c3cccnc3)CC2)cc1`, the Ratio in data set [1] stood at 0.99; in data set [3], 0.84. For the same molecule, the IC50 turned out to be 69 µM in the data set with L5178Y [2], 44 µM in the data set on L5178Y [4], 24.2 µM in the data set on L5178Y [5] and 29.8 µM in the data set on L5178Y [6].

Take `CCC(C)(C)c1ccc(OCCCCN2CCN(c3ncccn3)CC2)cc1`: the Ratio in data set [1] turned out to be 32.32; in data set [7] it was 1.6; in data set [3], 2.17. For the same molecule, the IC50 with L5178Y [2] came out at 46.4 µM; in the data set on L5178Y [4] it was 32.1 µM; in the data set with L5178Y [5], 17.7 µM; in the data set on L5178Y [6], 18.9 µM.

With `CC(=O)c1ccc(OCCCCN2CCN(c3ccccn3)CC2)cc1`, the Ratio came out at 8.71 in data set [1], 1.6 in data set [7] and 0.98 in data set [3]. In addition, the IC50 in the data set on L5178Y [2] is 63.7 µM; with L5178Y [4], 46.2 µM; in the data set on L5178Y [5] it was 24.1 µM; in the data set with L5178Y [6], 25.5 µM.

Take `CSc1ccc2c(c1)N(CCC1CCCCN1C)c1ccccc1S2` (configuration not stated) [THIORIDAZINE]: the IC50 came to 12.7 µM with L5178Y [2] and 7.43 µM in the data set with L5178Y [4].

As to `CC(C)(C)c1ccc(OCCCCN2CCN(c3cccnc3)CC2)cc1`, the figures for the Ratio in data set [1], in data set [7] and in data set [3] were 25.33, 1.6 and 2.81, respectively. Further, the IC50 in the data set with L5178Y [2] is 11.7 µM; with L5178Y [4], 10.5 µM; with L5178Y [5] it was 5.48 µM; with L5178Y [6], 5.99 µM. The Activity in the data set filed under Homo sapiens is over 100%.

Broadly, the IC50 is the midpoint of a concentration-inhibition curve.

The values are drawn from ChEMBL document CHEMBL4699470, “N-Substituted piperazine derivatives as potential multitarget agents acting on histamine H receptor and cancer resistance proteins” (Bioorg Med Chem Lett, 2020).
